Reference: article PMC3941082 (Journal of electroanalytical chemistry (Lausanne, …, 2014)
pIC50: −log10 of the molar value.

Target: Concanavalin A (Con A), as Con A-ALP conjugate (Canavalia ensiformis, UniProt P02866)
Test: competitive electrochemical lectin assay
Assay type: binding

Concanavalin A (Con A), as Con A-ALP conjugate, sequence (P02866 164-281 limits assumed): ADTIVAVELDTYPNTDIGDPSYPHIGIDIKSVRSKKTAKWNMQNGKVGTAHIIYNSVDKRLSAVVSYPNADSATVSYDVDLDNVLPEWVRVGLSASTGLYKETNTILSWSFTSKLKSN
Concanavalin A (Con A), as Con A-ALP conjugate, sequence (P02866 30-148 limits assumed): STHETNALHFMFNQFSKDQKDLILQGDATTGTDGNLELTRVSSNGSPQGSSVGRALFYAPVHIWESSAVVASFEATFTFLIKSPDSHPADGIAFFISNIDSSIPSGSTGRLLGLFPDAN

## CO[C@H]1O[C@H](CO)[C@@H](O)[C@H](O)[C@@H]1O [methyl α-D-mannopyranoside]
  pIC50: ~4.05
